In patent US7442541B2, “β-glucan-containing fat and oil composition and novel microorganism capable of producing β-glucan” (Adeka Corporation, priority 2002, dated 2008):

Experiments:
ADK-1 = assay: Cycloheximide resistance test; format: cell-based; settings: strain ADK-1, YM agar, 26° C., 10 days
Description: (§1) The strains obtained by the screening in Test Examples 1 and 2 and IFO-4466, IFO-6353, and IFO-7757 purchased from Institute for Fermentation, Osaka, i.e., were tested for cycloheximide resistance as follows. Each strain was grown on YM agar medium (Difco) at 26° C. for 5 days. YM agar media (Difco) containing 5, 10, 20, 40, and 80 μg/ml of cycloheximide were prepared. The grown strain was inoculated into each of the cycloheximide-containing media using a sterile toothpick and incubated at 26° C. for 10 days. The plates were examined for colonies. The diameters of the colonies, if formed, were measured.

ADK-20 = assay: Cycloheximide resistance test; format: cell-based; settings: strain ADK-20, YM agar, 26° C., 10 days
Description: as §1

ADK-24 = assay: Cycloheximide resistance test; format: cell-based; settings: strain ADK-24, YM agar, 26° C., 10 days
Description: as §1

ADK-28 = assay: Cycloheximide resistance test; format: cell-based; settings: strain ADK-28, YM agar, 26° C., 10 days
Description: as §1

ADK-31 = assay: Cycloheximide resistance test; format: cell-based; settings: strain ADK-31, YM agar, 26° C., 10 days
Description: as §1

ADK-4 = assay: Cycloheximide resistance test; format: cell-based; settings: strain ADK-4, YM agar, 26° C., 10 days
Description: as §1

ADK-5 = assay: Cycloheximide resistance test; format: cell-based; settings: strain ADK-5, YM agar, 26° C., 10 days
Description: as §1

ADK-6 = assay: Cycloheximide resistance test; format: cell-based; settings: strain ADK-6, YM agar, 26° C., 10 days
Description: as §1

ADK-8 = assay: Cycloheximide resistance test; format: cell-based; settings: strain ADK-8, YM agar, 26° C., 10 days
Description: as §1

ADK-34 = assay: Cycloheximide resistance test; format: cell-based, Aureobasidium pullulans; settings: strain ADK-34, YM agar, 26° C., 10 days
Description: as §1

ADK-71 = assay: Cycloheximide resistance test; format: cell-based, Aureobasidium pullulans; settings: strain ADK-71, YM agar, 26° C., 10 days
Description: as §1

ADK-77 = assay: Cycloheximide resistance test; format: cell-based, Aureobasidium pullulans; settings: strain ADK-77, YM agar, 26° C., 10 days
Description: as §1

ADK-82 = assay: Cycloheximide resistance test; format: cell-based, Aureobasidium pullulans; settings: strain ADK-82, YM agar, 26° C., 10 days
Description: as §1

IFO-4466 = assay: Cycloheximide resistance test; format: cell-based, Aureobasidium pullulans; settings: strain IFO-4466, YM agar, 26° C., 10 days
Description: as §1

IFO-6353 = assay: Cycloheximide resistance test; format: cell-based, Aureobasidium pullulans; settings: strain IFO-6353, YM agar, 26° C., 10 days
Description: as §1

IFO-7757 = assay: Cycloheximide resistance test; format: cell-based, Aureobasidium pullulans; settings: strain IFO-7757, YM agar, 26° C., 10 days
Description: as §1

[1] = tested on: IFO-4466, IFO-6353, and IFO-7757; assay: Growth of reference strains on solid medium containing cycloheximide; format: cell-based, Aureobasidium pullulans; settings: solid medium (agar plate), 26° C., 10 days
Description: This is the case that the formation of a colony of 0.1 mm or greater, preferably 0.3 mm or greater, still preferably 0.5 mm or greater in diameter as a result of fungous proliferation is observed on a solid medium having the cycloheximide concentration that IFO strains is not allowed to grow after a strain is inoculated on the solid medium (agar plate) containing cycloheximide and cultured at 26° C. for 10 days. Usually, these IFO strains are not allowed to grow on a solid medium containing cycloheximide at concentrations of 20 μg/ml or higher.

`C[C@@H]1C[C@@H]([C@H](O)CC2CC(=O)NC(=O)C2)C(=O)[C@@H](C)C1` [Cycloheximide, cycloheximide] gave a Colony diameter (ADK-1; cycloheximide 5 μg/ml) of 0 mm, a Colony diameter (ADK-1; cycloheximide 10 μg/ml) of 0 mm and a Colony diameter (ADK-1; cycloheximide 20 μg/ml) of 0 mm. It also gave a Colony diameter (ADK-1; cycloheximide 40 μg/ml) of 0 mm, a Colony diameter (ADK-1; cycloheximide 80 μg/ml) of 0 mm and a Colony diameter (ADK-20; cycloheximide 5 μg/ml) of 6.2 mm. For the same compound, the Colony diameter (ADK-20; cycloheximide 10 μg/ml) was 0 mm, the Colony diameter (ADK-20; cycloheximide 20 μg/ml) was 0 mm and the Colony diameter (ADK-20; cycloheximide 40 μg/ml) was 0 mm. It also gave a Colony diameter (ADK-20; cycloheximide 80 μg/ml) of 0 mm, a Colony diameter (ADK-24; cycloheximide 5 μg/ml) of 9.1 mm and a Colony diameter (ADK-24; cycloheximide 10 μg/ml) of 2.5 mm. It also gave a Colony diameter (ADK-24; cycloheximide 20 μg/ml) of 0 mm, a Colony diameter (ADK-24; cycloheximide 40 μg/ml) of 0 mm and a Colony diameter (ADK-24; cycloheximide 80 μg/ml) of 0 mm. It also gave a Colony diameter (ADK-28; cycloheximide 5 μg/ml) of 7.1 mm, a Colony diameter (ADK-28; cycloheximide 10 μg/ml) of 0 mm and a Colony diameter (ADK-28; cycloheximide 20 μg/ml) of 0 mm. It also gave a Colony diameter (ADK-28; cycloheximide 40 μg/ml) of 0 mm, a Colony diameter (ADK-28; cycloheximide 80 μg/ml) of 0 mm and a Colony diameter (ADK-31; cycloheximide 5 μg/ml) of 6.3 mm. It also gave a Colony diameter (ADK-31; cycloheximide 10 μg/ml) of 1.7 mm, a Colony diameter (ADK-31; cycloheximide 20 μg/ml) of 0 mm and a Colony diameter (ADK-31; cycloheximide 40 μg/ml) of 0 mm. The Colony diameter (ADK-31; cycloheximide 80 μg/ml) was 0 mm, the Colony diameter (ADK-4; cycloheximide 5 μg/ml) was 8.5 mm and the Colony diameter (ADK-4; cycloheximide 10 μg/ml) was 0 mm. The Colony diameter (ADK-4; cycloheximide 20 μg/ml) was 0 mm, the Colony diameter (ADK-4; cycloheximide 40 μg/ml) was 0 mm and the Colony diameter (ADK-4; cycloheximide 80 μg/ml) was 0 mm. The Colony diameter (ADK-5; cycloheximide 5 μg/ml) was 6.3 mm, the Colony diameter (ADK-5; cycloheximide 10 μg/ml) was 0 mm and the Colony diameter (ADK-5; cycloheximide 20 μg/ml) was 0 mm. For the same compound, the Colony diameter (ADK-5; cycloheximide 40 μg/ml) was 0 mm, the Colony diameter (ADK-5; cycloheximide 80 μg/ml) was 0 mm and the Colony diameter (ADK-6; cycloheximide 5 μg/ml) was 7.1 mm. For the same compound, the Colony diameter (ADK-6; cycloheximide 10 μg/ml) was 0 mm, the Colony diameter (ADK-6; cycloheximide 20 μg/ml) was 0 mm and the Colony diameter (ADK-6; cycloheximide 40 μg/ml) was 0 mm. For the same compound, the Colony diameter (ADK-6; cycloheximide 80 μg/ml) was 0 mm, the Colony diameter (ADK-8; cycloheximide 5 μg/ml) was 7.7 mm and the Colony diameter (ADK-8; cycloheximide 10 μg/ml) was 1.1 mm. For the same compound, the Colony diameter (ADK-8; cycloheximide 20 μg/ml) was 0 mm, the Colony diameter (ADK-8; cycloheximide 40 μg/ml) was 0 mm and the Colony diameter (ADK-8; cycloheximide 80 μg/ml) was 0 mm. The Colony diameter (ADK-34; cycloheximide 5 μg/ml) was 13.6 mm, the Colony diameter (ADK-34; cycloheximide 10 μg/ml) was 6.7 mm and the Colony diameter (ADK-34; cycloheximide 20 μg/ml) was 5.1 mm. It also gave a Colony diameter (ADK-34; cycloheximide 40 μg/ml) of 3.7 mm, a Colony diameter (ADK-34; cycloheximide 80 μg/ml) of 0.5 mm and a Colony diameter (ADK-71; cycloheximide 5 μg/ml) of 7.6 mm. For the same compound, the Colony diameter (ADK-71; cycloheximide 10 μg/ml) was 4.1 mm, the Colony diameter (ADK-71; cycloheximide 20 μg/ml) was 1.8 mm and the Colony diameter (ADK-71; cycloheximide 40 μg/ml) was 1.2 mm. It also gave a Colony diameter (ADK-71; cycloheximide 80 μg/ml) of 0 mm, a Colony diameter (ADK-77; cycloheximide 5 μg/ml) of 9.5 mm and a Colony diameter (ADK-77; cycloheximide 10 μg/ml) of 4.1 mm. For the same compound, the Colony diameter (ADK-77; cycloheximide 20 μg/ml) was 0.8 mm, the Colony diameter (ADK-77; cycloheximide 40 μg/ml) was 0 mm and the Colony diameter (ADK-77; cycloheximide 80 μg/ml) was 0 mm. The Colony diameter (ADK-82; cycloheximide 5 μg/ml) was 10.4 mm, the Colony diameter (ADK-82; cycloheximide 10 μg/ml) was 2.9 mm and the Colony diameter (ADK-82; cycloheximide 20 μg/ml) was 1.5 mm. For the same compound, the Colony diameter (ADK-82; cycloheximide 40 μg/ml) was 1.2 mm, the Colony diameter (ADK-82; cycloheximide 80 μg/ml) was 0 mm and the Colony diameter (IFO-4466; cycloheximide 5 μg/ml) was 4.4 mm. For the same compound, the Colony diameter (IFO-4466; cycloheximide 10 μg/ml) was 0 mm, the Colony diameter (IFO-4466; cycloheximide 20 μg/ml) was 0 mm and the Colony diameter (IFO-4466; cycloheximide 40 μg/ml) was 0 mm. It also gave a Colony diameter (IFO-4466; cycloheximide 80 μg/ml) of 0 mm, a Colony diameter (IFO-6353; cycloheximide 5 μg/ml) of 7.3 mm and a Colony diameter (IFO-6353; cycloheximide 10 μg/ml) of 2.3 mm. It also gave a Colony diameter (IFO-6353; cycloheximide 20 μg/ml) of 0 mm, a Colony diameter (IFO-6353; cycloheximide 40 μg/ml) of 0 mm and a Colony diameter (IFO-6353; cycloheximide 80 μg/ml) of 0 mm. For the same compound, the Colony diameter (IFO-7757; cycloheximide 5 μg/ml) was 0 mm, the Colony diameter (IFO-7757; cycloheximide 10 μg/ml) was 0 mm and the Colony diameter (IFO-7757; cycloheximide 20 μg/ml) was 0 mm. For the same compound, the Colony diameter (IFO-7757; cycloheximide 40 μg/ml) was 0 mm, the Colony diameter (IFO-7757; cycloheximide 80 μg/ml) was 0 mm and the “cycloheximide concentration at which IFO strains are not allowed to grow” value [1] was ≥ 20 µg/mL.
